SMILES strings stand for the structures.

The assay concerns T1, α-galactosidase.
T1 construct: gene aglA; native extracellular enzyme; filtered culture supernatant used as crude enzyme, not purified
Kind of assay: p-nitrophenol release at […] nm, Michaelis-Menten fit (GraphPad Prism […]). In kind it is biochemical, Aspergillus niger. The note with it: free enzyme (crude culture supernatant); 50 mM acetate buffer pH 5.5; 37 °C; 10 min; 0.3 to 2.2 mM substrate.

One may read the Km as the substrate concentration at which the rate is half of its maximum. With `O=[N+]([O-])c1ccc(O[C@H]2O[C@H](CO)[C@H](O)[C@H](O)[C@H]2O)cc1` [p-Nitrophenyl α-D-galactopyranoside], the Km is 300 ± 20 µM.

For the origin of these results see article PMC7956481, “Carrier-Free Immobilization of α-Galactosidase as Nano-Biocatalysts for Synthesizing Prebiotic α-Galacto-Oligosaccharides” (Molecules, 2021).
